Counter-ions that a name gives are not always drawn.

The values that follow come from patent publication US20220081415A1, “Amino Acid Derivatives for the Treatment of Inflammatory Diseases” (The Roskamp Institute, priority 2019, published 2022).

For this experiment, the system named is NF-kB activation induced by TNFα. As to the kind of experiment: TNFα Luciferase assay: inhibition of NF-kB activation induced by TNFα in HEK293/NF-kB luciferase cells. Format: cell-based. Conditions: Homo sapiens, 4 h, 25 ng/ml of TNF-α for four hours, quadruplicate, read-out: IC50, concentration at which NF-kB activation was reduced by 50%. How it is done:
Determination of Inhibition of NF-kB Activation Induced by TNFα . . . In Vitro Assay
The ability of a compound disclosed herein to inhibit NFkB activation induced by TNFα was determined using the TNFα Luciferase assay. The HEK293/NF-kB luciferase cell line was obtained by cotransfection of pNFkB-luc vector with pHyg (Panomics, CA, USA) followed by hygromycin selection. HEK293/NFkB Luciferase cells were grown in DMEM medium supplemented with 10% fetal bovine serum, 100 U/ml of penicillin, 100 ng/ml of streptomycin/Fungizone, and 100 μg/ml of hygromycin B as the selecting agent. HEK293 NFkB Luciferase cells were grown in T75 flasks (Nunc™ Cell Culture Treated EasYFlasks™) in a cell culture incubator at 37° C. and 5% CO2.
Confluent T75 cell culture flasks (approximately 8-10 million of cells per flask) were washed with 10 ml of sterile PBS (without calcium and magnesium) under a biosafety cabinet. After aspiration of the PBS with a sterile glass pipette, the layer of cells (for each T75 flask) was covered with 1 ml of TrypLE™ Express without phenol red (Gibco) at room temperature. After one minute of incubation, HEK293 were mechanically resuspended in the TrypLE by tapping the side of the flask. The cells were then resuspended with 10 ml of pre-warmed complete culture medium and transferred to a conical tube. Cells were centrifuged for 5 minutes at 4000 rpm (1000 g) at room temperature. The cellular pellet was resuspended with 24 ml of pre-warmed cell culture media and […] of cell suspension (approximately 80,000 cells per well) was plated per well in 96-well cell culture plates (Costar #3599, Corning, N.Y., USA) using a multichannel pipette and reversed pipetting to prevent air bubble formation. After plating, the cells were maintained overnight in the cell culture incubator before being treated. For each 96 well cell culture plate, 8 wells were used as “control wells” (only culture medium added) and to 8 wells only TNFα was added. The NF-kB Luciferase reporter cell line was challenged with 25 ng/ml of TNF-α for four hours in the presence and absence (control conditions) of a dose range of the different compounds to be tested. For each compound, a dose range of concentrations was tested in quadruplicate and used to determine an IC50.
Luciferase activity was monitored using the Luc-Screen® Extended-Glow Luciferase Reporter Gene Assay System by chemoluminescence according to the instruction of the manufacturer (Invitrogen) and a BioTek Synergy HT plate reader (BioTek Instruments, VT, USA).
Turning to `NCCC(=O)Nc1cccc(C(=O)N[C@@H](Cc2ccccc2)C(=O)N2CC=CCC2c2cccnc2)c1` (stereo partly drawn) [Compound 54, 3-(3-aminopropanamido)-N-((2S)-1-oxo-3-phenyl-1-(6-(pyridin-3-yl)-5,6-dihydropyridin-1(2H)-yl)propan-2-yl)benzamide hydrochloride], the IC50 was found to be 186 nM. In the case of `CCCCNc1cccc(C(=O)N[C@@H](Cc2ccccc2)C(=O)N2CC=CCC2c2cccnc2)c1` (stereo partly drawn) [Compound 60, 3-(butylamino)-N-((2S)-1-oxo-3-phenyl-1-(6-(pyridin-3-yl)-5,6-dihydropyridin-1(2H)-yl)propan-2-yl)benzamide] it was 216 nM; in that of `COc1cc(OC)cc(C(=O)N[C@H](Cc2ccccc2)C(=O)N2CC=CCC2c2cccnc2)c1` (stereo partly drawn) [Compound 28, 3,5-dimethoxy-N-((2R)-1-oxo-3-phenyl-1-(6-(pyridin-3-yl)-5,6-dihydropyridin-1(2H)-yl)propan-2-yl)benzamide], 6500 nM; in that of `CC[C@@H](C)C(=O)Nc1cccc(C(=O)N[C@@H](Cc2ccccc2)C(=O)N2CC=CCC2c2cccnc2)c1` (stereo partly drawn) [Compound 58, 3-((R)-2-methylbutanamido)-N-((2S)-1-oxo-3-phenyl-1-(6-(pyridin-3-yl)-5,6-dihydropyridin-1(2H)-yl)propan-2-yl)benzamide], 185 nM. As to `CC(C)[C@@H](C(=O)N1CC=CC[C@@H]1c1cccnc1)N1C(=O)c2ccccc2C1=O` (single isomer, unassigned) [Compound 4], the IC50 was found to be 550000 nM. Then `CCCC(=O)Nc1cccc(C(=O)NC(C)C(=O)N2CC=CCC2c2cnc3ccccc3c2)c1` (stereo not shown) [Compound 68, 3-butyramido-N-(1-oxo-1-(2-(quinolin-3-yl)-3,6-dihydropyridin-1(2H)-yl)propan-2-yl)benzamide], with 850 nM. In the case of `CCCC(=O)Nc1cccc(C(=O)NC(Cc2ccccc2)C(=O)N2CC=CCC2c2cccnc2)c1` (stereo not shown) [Compound 37, 3-butyramido-N-(1-oxo-3-phenyl-1-(6-(pyridin-3-yl)-5,6-dihydropyridin-1(2H)-yl)propan-2-yl)benzamide] it was 125 nM; in that of `NCC(=O)Nc1cccc(C(=O)N[C@@H](Cc2ccccc2)C(=O)N2CC=CCC2c2cccnc2)c1` (stereo partly drawn) [Compound 53, 3-(2-aminoacetamido)-N-((2S)-1-oxo-3-phenyl-1-(6-(pyridin-3-yl)-5,6-dihydropyridin-1(2H)-yl)propan-2-yl)benzamide hydrochloride], 212 nM; in that of `C[C@H](C(=O)N1CC=CCC1c1cccnc1)N1C(=O)c2ccccc2C1=O` (stereo partly drawn) [Compound 17, 2-((2R)-1-oxo-1-(6-(pyridin-3-yl)-5,6-dihydropyridin-1(2H)-yl)propan-2-yl)isoindoline-1,3-dione], 140000 nM. Turning to `O=C(N[C@@H](Cc1ccccc1)C(=O)N1CC=CCC1c1cccnc1)c1ccc[nH]1` (stereo partly drawn) [Compound 56, N-((2S)-1-oxo-3-phenyl-1-(6-(pyridin-3-yl)-5,6-dihydropyridin-1(2H)-yl)propan-2-yl)-1H-pyrrole-2-carboxamide], the IC50 was 968 nM.
